Test results as given in ChEMBL document CHEMBL3739372 (Bioorg Med Chem, 2015).

Key:
[1] = Cytotoxicity against MDCK cells after 72 hrs by XTT assay; type: cell-based, Canis lupus familiaris; details: dog
[2] = tested on: Influenza A virus; test: Antiviral activity against Influenza A virus infected in MDCK cells after 72 hrs by yield reduction assay; type: functional, organism-based
[3] = Inhibition of Influenza B virus wild type neuraminidase

| SMILES | CC50 at 72 h [1] [µM] | EC50 [2] [nM] | IC50 [3] [µM] |
| --- | --- | --- | --- |
| CCOC(=O)c1cn(CC)c2ccc(-n3cc(C4=CCCCC4)nn3)cc2c1=O | 566 | 200 | 22 |
| CCOC(=O)C1=C[C@@H](OC(CC)CC)[C@H](NC(C)=O)[C@@H](N)C1 [OSELTAMIVIR] | 321 | 30 | 16 |
